Numbers after ± are expanded uncertainties.
Tests used:
[1] = 293.15 K; 101.33 kPa; Liquid; Vibrating tube method
[2] = refractive index (Na D-line) (dimensionless); settings: 293.15 K; 101.33 kPa; Liquid; Standard Abbe refractometry

C=CC(=O)O [propenoic acid]
mass density [1]: 1051.22 ± 0.1 kg/m3
refractive index [2]: 1.4223 ± 0.0007

COC1CCCC1 [methoxycyclopentane]
mass density [1]: 860.43 ± 0.12 kg/m3
refractive index [2]: 1.4187 ± 0.0007
